The record followed here is US4339442A, “Gynosaponins, their use and a process for preparing the same” (priority 1980, dated 1982).

Common to all, as to type: cell-based, male wister rats
Assay [1] relates to fat cells. The experiment in a line: Synthesis of fat from glucose in fat cells. As to conditions: 20 μg/ml; for Power for synthesis of neutral fat from glucose: 37° C., half an hour; for activation at 20 µg/mL: Rattus norvegicus, 0.5 h, none = 100, read-out: Rate of promotion. As for the experimental part: (§1) Fat tissues were separated from the epididymides of male wister rats weighing 150 to 180 g each, and fat cells were obtained therefrom in accordance with the Rodbell's method [M. Rodbell, J. Biol. Chem., 239, 375 (1964)]. A small section was prepared from 4 g of the fat tissue, and placed in 10 ml. of Krebs-Ringer bicarbonate buffer containing 0.4 g of albumin, 10 mg of collagenase and 5 mg of glucose, and having a pH value of 7.4. It was heated at 37° C. for 50 minutes, and subjected to centrifugal separation at 300 rpm, whereby a floating fat cell layer was separated. Added into the fat cell were 10 ml. of the aforesaid buffer (pH 7.4), and the solution was carefully stirred to wash the fat cell, followed by centrifugal separation at 300 rpm for 30 seconds. This procedure was repeated twice, whereby the fat cells were washed perfectly, and these fat cells were used for the tests.
^14 C-glucose having its carbon atoms marked with radioactivity was reacted upon fat cells, and a Geiger count was read to determine the amount of the glucose participating in the fat synthesis and incorporated into the fat cells as a neutral fat, whereby gynosaponins were tested for their effects on the power of the glucose for fat synthesis.
More specifically, the fat cells obtained by treating with collagenase were suspended in KRB, and 0.35 ml. of the resulting solution containing 100 mg of fat cells was placed into a test tube with 0.1 ml. of each saponin solution containing 20 μg of saponin, 0.5 ml. of a 5% albumin solution in KRB, containing 10 mM glucose and having a pH value of 7.4, and 0.05 ml. of a ^14 C-glucose solution which was a 0.5 μCi KRP solution having a pH value of 7.4 and containing 10 mM glucose. They were heated at 37° C. for half an hour, and after 5 ml. of Dole's extract were added and the whole was shaked for five minutes, 3 ml. of heptane and 2 ml. of water were added, and the whole was shaked for five minutes. 3 ml. of a heptane layer were separated, and after an alkaline ethanol solution (0.5 N sodium hydroxide solution, 50 % ethanol solution) was added in the amount of 3 ml., the whole was shaked for five minutes. Then, 1 ml. of an ethanol layer was separated, and 10 ml. of a toluene scintillation solution were added thereinto, followed by determination according to the method of Skipski et al. [Biochem. Biophys. Acta, 106, 386 (1965)].

Assay [2] relates to fat cells. The experiment in a line: Decomposition by adrenalin of the fat in the fat cells. As to conditions: adrenalin 1 μg/ml + saponin 20 μg/ml, 37° C., two hours; for inhibition at 20 µg/mL: Rattus norvegicus, 2 h, read-out: Rate of inhibition. As for the experimental part:
A small section was prepared from 4 g of the fat tissue, and placed in 10 ml. of Krebs-Ringer bicarbonate buffer containing 0.4 g of albumin, 10 mg of collagenase and 5 mg of glucose, and having a pH value of 7.4. […] Added into the fat cell were 10 ml. of the aforesaid buffer (pH 7.4), and the solution was carefully stirred to wash the fat cell, followed by centrifugal separation at 300 rpm for 30 seconds. This procedure was repeated twice, whereby the fat cells were washed perfectly, and these fat cells were used for the tests.
The fat cells obtained by treating with collagenase were suspended in Krebs-Ringer phosphate buffer (KRP) having a pH value of 7.4. Placed into a test tube were 0.3 ml. of the solution thus obtained, and containing 100 mg of fat cells, 0.1 ml. of an adrenalin solution containing 1 μg of adrenalin, 0.1 ml. of a saponin solution containing 20 μg of saponin, and 0.5 ml. of a 5% albumin solution in KRP, and having a pH value adjusted to 7.4. […] More specifically, 3 ml. of Dole's extract were placed in the reaction system, and after they were shaked for five minutes, 3 ml. of heptane were dispensed, and 1 ml. of a thymol blue solution was added thereinto. The resulting solution was titrated with a 0.008 N aqueous solution of sodium hydroxide, while it was being stirred with nitrogen, and the amount of the resulting free fatty acid was determined in accordance with a calibration curve.
The rate of inhibition was obtained in accordance with the equation shown at (1) above.

Assay [3] concerns fat cells. As to the kind of experiment: Decomposition of the fat in the fat cell by ACTH. The note with it: ACTH 1 μg/ml + saponin 20 μg/ml, 37° C., two hours; for inhibition at 20 µg/mL: Rattus norvegicus, 2 h, read-out: Rate of inhibition. Here is the method:
as §1
The fat cells obtained by treating with collagenase were suspended in Krebs-Ringer bicarbonate buffer (KRB) having a pH value of 7.4. Placed into a test tube were 0.3 ml. of the solution thus obtained (containing 100 mg of fat cells), 0.1 ml. of ACTH solution containing 1 μg of ACTH, 0.1 ml. of each saponin solution containing 500 μg of saponin, and 0.3 ml. of a 5% alubumin solution in KRB, and having a pH value adjusted to 7.4. They were heated at 37° C. for two hours, and the amount of the resulting free fatty acid was determined in accordance with the Dole's method [V. P. Dole, J. Biol. Chem., 35, 150 (1958)].
Namely, 3 ml. of Dole's extract were separated into the reaction system, and 1 ml. of a thymol blue solution was added thereinto. Nitrogen was blown into the resulting solution, and the solution was titrated with a 0.008 N aqueous solution of sodium hydroxide, while it was being stirred. The amount of the resulting free fatty acid was determined in accordance with a calibration curve.
The rate of inhibition against fat decomposition was obtained in accordance with the following equation: [formula] wherein A stands for the amount of the free fatty acid formed by addition of ACTH along in the amount of 1 μg/ml.; and B stands for the amount of the free fatty acid formed by addition of ACTH and saponin in the amount of 1 μg/ml. and 20 μg/ml., respectively.

Take `CC(C)=CCC[C@](C)(O[C@@H]1O[C@H](CO[C@@H]2O[C@H](CO)[C@@H](O)[C@H](O)[C@H]2O)[C@@H](O)[C@H](O)[C@H]1O)[C@H]1CC[C@]2(C)[C@@H]1[C@H](O)C[C@@H]1[C@@]3(C)CC[C@H](O[C@@H]4O[C@H](CO)[C@@H](O)[C@H](O)[C@H]4O)C(C)(C)[C@@H]3CC[C@]12C` [gynosaponin S, 20S-Protopanaxadiol-3-O-β-D-glucopyranoside-20-O-[β-D-glucopyranosyl (1→6)-β-D-glucopyranoside]]: in assay [1], the “Power for synthesis of neutral fat from glucose” value (from here on “Power for synthesis”) was 10,100 cpm/g and the activation at 20 µg/mL was 47%. In assay [2], the inhibition (commonly the percentage by which the read-out fell short of the control) at 20 µg/mL came to 4% and the “Free fatty acid formed by decomposition of fat” value (shortened to “Free fatty acid formed”) is 13.5 μ Eq/g. For the same molecule, in assay [3], the “Free fatty acid formed” value is reported as 5.4 μ Eq/g and the inhibition at 20 µg/mL was determined as 36%.

With `CC(=CCC[C@](C)(O[C@@H]1O[C@H](CO[C@@H]2OC[C@@H](O)[C@H](O)[C@H]2O)[C@@H](O)[C@H](O)[C@H]1O)[C@H]1CC[C@]2(C)[C@@H]1[C@H](O)C[C@@H]1[C@@]3(C)CC[C@H](O)C(C)(C)[C@@H]3CC[C@]12C)CO` [gynosaponin U, 20S,26-Hydroxyprotopanaxadiol-20-O-[β-D-xylopyranosyl (1→6)-β-D-glucopyranoside]], in assay [1], the “Power for synthesis” value was 13,100 cpm/g and the activation at 20 µg/mL stood at 61%. Further, in assay [2], the inhibition at 20 µg/mL is 2% and the “Free fatty acid formed” value is 13.8 μ Eq/g. In assay [3], the “Free fatty acid formed” value came out at 5.6 μ Eq/g and the inhibition at 20 µg/mL stood at 33%.

Turning to `CC(C)=CCC[C@](C)(O[C@@H]1O[C@H](CO[C@@H]2O[C@H](CO)[C@@H](O)[C@H](O)[C@H]2O)[C@@H](O)[C@H](O)[C@H]1O)[C@H]1CC[C@]2(C)[C@@H]1[C@H](O)C[C@@H]1[C@@]3(C)CC[C@H](O[C@@H]4O[C@H](CO[C@@H]5O[C@@H](C)[C@H](O)[C@@H](O)[C@H]5O)[C@@H](O)[C@H](O)[C@H]4O)C(C)(C)[C@@H]3CC[C@]12C` [progynosapogenin A2, 20S-Protopanaxadiol-3-O-[α-L-rhamnopyranosyl (1→6)-β-D-glucopyranoside]-20-O-[β-D-glucopyranosyl (1→6)-β-D-glucopyranoside]], in assay [1], the “Power for synthesis” value was 12,650 cpm/g and the activation at 20 µg/mL amounted to 59%. For the same molecule, in assay [2], the inhibition at 20 µg/mL turned out to be 8% and the “Free fatty acid formed” value was found to be 13.0 μ Eq/g. Further, in assay [3], the “Free fatty acid formed” value was 6.2 μ Eq/g and the inhibition at 20 µg/mL worked out at 26%.

Consider `CC(=CCC[C@](C)(O[C@@H]1O[C@H](CO)[C@@H](O)[C@H](O)[C@H]1O)[C@H]1CC[C@]2(C)[C@@H]1[C@H](O)C[C@@H]1[C@@]3(C)CC[C@H](O)C(C)(C)[C@@H]3CC[C@]12C)CO` [progynosapogenin O1, 20S,26-Hydroxyprotopanaxadiol-20-O-β-D-glucopyranoside], for which, in assay [1], the “Power for synthesis” value is reported as 11,200 cpm/g and the activation at 20 µg/mL was 52%. Besides, in assay [2], the inhibition at 20 µg/mL came out at 11% and the “Free fatty acid formed” value came to 12.6 μ Eq/g. Also, in assay [3], the “Free fatty acid formed” value was 5.9 μ Eq/g and the inhibition at 20 µg/mL turned out to be 30%.
